Measurements as given in ChEMBL document CHEMBL4130525, “gem-Dinitroalkyl Benzenes: A Novel Class of IOP-Lowering Agents for the Treatment of Ocular Hypertension” (ACS Med Chem Lett, 2017).
Several values for one entry are separate records, joined by “and”; a condition that tells them apart may be missing. Equal entries are not always repeated. Activity calls are given as the source filed them. No cut-off for these calls is given here.

Tests used:
[1] = Induction of NO release assessed as nitrite formation at 0.1 mM in HCl at pH 1.5 in absence of L-cysteine measured after 6 hrs by Griess assay; type: functional
[2] = Induction of NO release assessed as nitrite formation at 0.1 mM in HCl at pH 1.5 in absence of L-cysteine measured after 1 hr by Griess assay; type: functional
Thoracic aorta [3] = assay: Vasodilatory activity in denuded Wistar rat thoracic aorta assessed as relaxation of L-phenylephrine-induced contractions of aortic strips; type: functional, tissue-based
Oryctolagus cuniculus [4] = assay: Antiglaucoma activity in hypertonic saline-induced New Zealand albino rabbit transient ocular hypertensive model assessed as IOP lowering efficacy at 1% dose administered topically immediately after hypertonic saline injection measured at 120 mins post dose; type: functional
[5] = Drug metabolism assessed as anisic acid formation after 24 hrs by HPLC analysis; type: physicochemical
[6] = Induction of NO release assessed as nitrite formation at 0.1 mM in phosphate buffer saline at pH 1.5 to 7.4 measured up to 24 hrs by Griess assay; type: functional
Oryctolagus cuniculus [7] = assay: Antiglaucoma activity in hypertonic saline-induced New Zealand albino rabbit transient ocular hypertensive model assessed as IOP lowering efficacy at 1% dose administered topically immediately after hypertonic saline injection measured at 240 mins post dose; type: functional
[8] = n-Octanol-water distribution coefficient, log D of the compound at pH 7.4 after 20 mins by UV-spectrphotometric based shake-flask method; type: physicochemical
Oryctolagus cuniculus [9] = assay: Antiglaucoma activity in hypertonic saline-induced New Zealand albino rabbit transient ocular hypertensive model assessed as IOP lowering efficacy at 1% dose administered topically immediately after hypertonic saline injection measured at 60 mins post dose; type: functional
[10] = Ionization constant, pKa of the compound in KCl at pH 1.8 by potentiometric titration; type: physicochemical
[11] = Induction of NO release assessed as nitrite formation at 0.1 mM in phosphate buffer saline at pH 7.4 in absence of L-cysteine measured after 1 hr by Griess assay; type: functional
[12] = Lipophilicity, log P of the compound by shake flask method; type: physicochemical; details: octanol/water
[13] = Induction of NO release assessed as nitrite formation at 0.1 mM in phosphate buffer saline at pH 7.4 in absence of L-cysteine measured after 6 hrs by Griess assay; type: functional
[14] = Induction of NO release assessed as nitrite formation at 0.1 mM in phosphate buffer saline at pH 7.4 in presence of 5 mM of L-cysteine measured after 1 hr by Griess assay; type: functional
[15] = Induction of NO release assessed as nitrite formation at 0.1 mM in phosphate buffer saline at pH 7.4 in presence of 5 mM of L-cysteine measured after 6 hrs by Griess assay; type: functional
[16] = Induction of NO release assessed as nitrite formation at 0.1 mM in phosphate buffer saline at pH 7.4 in presence of 5 mM of L-cysteine by Griess assay; type: functional; details: TDE = time-dependent effect
[17] = Induction of NO release assessed as nitrite formation at 0.1 mM in phosphate buffer saline at pH 7.4 in absence of L-cysteine measured up to 24 hrs by Griess assay; type: functional
[18] = Induction of NO release assessed as nitrite formation at 0.1 mM in phosphate buffer saline at pH 7.4 in presence of 5 mM of L-cysteine measured up to 24 hrs by Griess assay; type: functional
Oryctolagus cuniculus [19] = assay: Antiglaucoma activity in carbomer-induced New Zealand albino rabbit transient ocular hypertensive model assessed as reduction in IOP at 1% dose administered topically everyday for 5 days measured 1 hr post drug instillation; type: functional, organism-based
Thoracic aorta [20] = assay: Vasodilatory activity in denuded Wistar rat thoracic aorta assessed as relaxation of L-phenylephrine-induced contractions of aortic strips in presence of 1 uM of soluble guanylate cyclase inhibitor ODQ; type: functional; design: scale not given: the % may be the effect or the level left
Oryctolagus cuniculus [21] = assay: Antiglaucoma activity in carbomer-induced New Zealand albino rabbit transient ocular hypertensive model assessed as reduction in IOP at 1% dose administered topically measured after 24 hrs; type: functional, organism-based
[22] = Rattus norvegicus, Thoracic aorta

Row | SMILES | Activity (Oryctolagus cuniculus [4]) | Activity (Oryctolagus cuniculus [7]) | Activity (Oryctolagus cuniculus [9]) | Activity [11] | EC50 (Thoracic aorta [3]) | logP [12] | Activity [13] | Activity [14] | Activity [15] | Activity [16] | Activity (Thoracic aorta [20]) | other results
1 | COc1ccc(C([N+](=O)[O-])[N+](=O)[O-])cc1 | -1.1 mmHg | Active | -10.7 mmHg |  |  |  |  |  |  |  |  | Activity [1]: 4%; Activity [2]: 1.3%; EC50 (Thoracic aorta [3]; [22]): 64 µM; Drug metabolism [5]: Dose-dependent effect; Activity [6]: Dose-dependent effect; logD at 20 min [8]: -1.21; pKa [10]: 3.9
2 | CC(c1ccccc1)([N+](=O)[O-])[N+](=O)[O-] | -10.5 mmHg | 0.3 mmHg | -5.6 mmHg | inactive | 50 µM and 24 µM | 2.34 | inactive | < 0.5% | 2% | Tde |  | 
3 | COCCOCCOCCOc1ccc(C(C)([N+](=O)[O-])[N+](=O)[O-])cc1 | 0.11 mmHg | Active | -12.7 mmHg | 2.6% | 55 µM and 264 µM | 1.63 | 12.8% | 2.7% | 13.8% |  |  | Activity [17]: Active; Activity [18]: Active
4 | Cc1ccc(C(C)([N+](=O)[O-])[N+](=O)[O-])cc1 | -6.7 mmHg | -0.04 mmHg | -4.9 mmHg | inactive | 4 µM and 20 µM | 2.69 | inactive | < 0.5% | 1.3% | Tde | 24% | Activity (Oryctolagus cuniculus [19]): Active; Activity (Oryctolagus cuniculus [21]): Dose-dependent effect
5 | CCOC(=O)[N-]c1c[n+](N2CCOCC2)no1 [MOLSIDOMINE] | 0.12 mmHg | -0.34 mmHg | -4.6 mmHg |  |  |  |  |  |  |  |  | EC50 (Thoracic aorta [3]; [22]): 18 µM; Drug metabolism (Oryctolagus cuniculus [7]): Metabolite detected
6 | COc1ccc(C(C)([N+](=O)[O-])[N+](=O)[O-])cc1 | -0.11 mmHg | Active | -7.3 mmHg | 3% |  | 2.2 | 24.9% | 3.5% | 25.4% |  | 40% | Activity [17]: Active; Activity [6]: Dose-dependent effect; Activity [18]: Active
7 | CC(c1ccc(C(F)(F)F)cc1)([N+](=O)[O-])[N+](=O)[O-] | -10.4 mmHg | -0.34 mmHg | -6.9 mmHg | inactive |  | 2.92 | inactive | 0.8% | 4.6% | Tde | 19% | 
